Test results: PMC3996151, “Safety and pharmacological characterization of the molecular tweezer CLR01 – a broad-spectrum inhibitor of amyloid proteins’ toxicity” (BMC Pharmacology & Toxicology, 2014)
Several values for one entry are separate records, joined by “and”; a condition that tells them apart may be missing. Equal values may be shown once.

Key:
[1] = biological target: T1, calf intestinal alkaline phosphatase (Bos taurus, UniProt P19111); assay: In vitro dephosphorylation by alkaline phosphatase (inorganic phosphate release); format: in vitro ADME; settings: up to 100 nmol CLR01, 60 min at 60°C, detection limit 5 nmol
T1 construct: purchased Promega, Madison, Wisconsin
T1 sequence (P19111 20-533): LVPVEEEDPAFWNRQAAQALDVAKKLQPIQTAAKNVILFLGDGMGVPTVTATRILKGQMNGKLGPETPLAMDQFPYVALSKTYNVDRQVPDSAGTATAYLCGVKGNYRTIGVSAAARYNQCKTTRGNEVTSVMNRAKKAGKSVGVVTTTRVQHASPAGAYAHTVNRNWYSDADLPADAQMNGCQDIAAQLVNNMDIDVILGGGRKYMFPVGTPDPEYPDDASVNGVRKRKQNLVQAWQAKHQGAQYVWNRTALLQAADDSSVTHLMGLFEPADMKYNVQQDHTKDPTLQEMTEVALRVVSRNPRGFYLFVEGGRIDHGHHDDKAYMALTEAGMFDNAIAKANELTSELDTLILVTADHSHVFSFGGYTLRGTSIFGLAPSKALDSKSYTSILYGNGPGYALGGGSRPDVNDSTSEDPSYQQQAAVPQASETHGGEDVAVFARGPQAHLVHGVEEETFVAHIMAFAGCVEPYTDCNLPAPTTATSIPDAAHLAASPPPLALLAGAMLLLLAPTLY
Description: Potential dephosphorylation of CLR01 was analyzed by incubating 100 nmol CLR01 with 0.08 units of alkaline phosphatase (ALP; calf intestinal alkaline phosphatase, Promega, Madison, Wisconsin) for 60 min at 60°C. One enzymatic unit is defined as the amount of enzyme required for catalyzing the hydrolysis of 1 μmol of p-nitrophenylphosphate per minute. p-Nitrophenylphosphate disodium salt at 5–50 nmol (Fisher, Waltham, Massachusetts) was used for generation of a standard curve. The amount of inorganic phosphate generated was measured spectrophotometrically using an EnzChek Phosphate Assay kit (Life Technologies, Carlsbad, California) according to the manufacturer’s instructions on a DU-640 spectrophotometer (Beckman Coulter, Brea, California) at λ = 360 nm. Baseline values were subtracted from readings and compared to the standard curve resulting from serial ALP reactions to calculate the amount of inorganic phosphate. Similarly, potential dephosphorylation of CLR01 by brain homogenates was measured. For these experiments, one brain hemisphere was homogenized by sonication in the presence of cOmplete protease-inhibitor cocktail (Roche, Penzberg, Germany). Protein concentration was measured using a BCA Protein Assay Kit (Pierce, Rockford, Illinois). […]

[2] = Plasma concentration by LC-MS after SC, IV or oral administration; format: in vivo, mouse
Description: For studies of plasma concentration, CLR01 was administered by either SC or intravenous (IV) injection at 1 mg/kg, or by oral gavage at 10 mg/kg, and plasma was collected at time points between 0.33 - 24 h. Three mice were used per time point. The concentration of CLR01 in plasma was determined by Wolfe Laboratories Inc. (Watertown, MA) using liquid chromatography-mass spectrometry (LC-MS) by interpolation of sample peak area data into the calibration curve.

[3] = set-up: method as in PMID 21916458, PMID 16218636; settings: cited from earlier work
[4] = Blood-brain barrier permeability with 3H-CLR01 IV (scintillation counting of blood and brain); format: in vivo, mouse; settings: for Blood radioactivity levels, % of the injected levels: 0.5 h following IV injection; for Brain radioactivity after double injection compared to one injection: two 11.86-μg/g injections
Description: The following groups of mice were used for CLR01 BBB penetration studies: 3×Tg and the corresponding WT mice at 2-m, 12-m, and 22 - 24-m (hereafter referred to as 22-m) of age. The groups were: 2-m WT, 2-m Tg, 12-m WT, 12-m Tg, 22-m WT, 22-m Tg. Mice were administered ^3H-CLR01 intravenously. Two μCi per gram of mouse body weight, which are equal to 11.86 μg/g of CLR01 in which ^3H-CLR01 made up 10% of the total CLR01, were injected into the jugular vein. Blood and brain were collected at 0.5, 1, 3, 8, 24, or 72 h (not all time points were collected for all groups, see the Results section). For times ≤ 3 h, mice were anesthetized by IP injection of ketamine and xylazine. The mice remained anesthetized following the injection until the specified time point, at which point they were given a lethal dose of pentobarbital. Then, blood was collected via a cardiac puncture, and the brain harvested with or without a perfusion step Pharmacokinetics of CLR01 in vivo. For time points 8–72 h, mice were not anesthetized and ^3H-CLR01 was injected into the tail vein. This change was due to the difficulty of keeping mice anesthetized for longer than 3 h. No differences were observed between mice given anesthesia and jugular vein injections and mice receiving tail vein injections.
Euthanasia procedures were the same as described above. For all mice, one hemisphere of the brain and 100–350 μl of blood were separately digested following instructions from Perkin-Elmer (document: Scintillation Cocktails and Consumables) with 1 ml Solvable (Perkin-Elmer, Waltham, MA), added to Ultima Gold Liquid Scintillation Cocktail (Perkin-Elmer) and read in a Triathler Liquid Scintillation Counter model 425–034, (Hidex, Turku, Finland). Brain permeability percentage was calculated as counts per minute (CPM) per g of brain relative to CPM per ml of blood. The data are an average of values from three mice per genotype/age/time combination.
For CLR01 transport-saturation studies using 5× the CLR01 dose, ^3H-CLR01 was kept at 10% of the total CLR01 mixture and a total of 59.3 μg of CLR01 (10 μCi) per g of mouse body weight was injected IV (22-m WT 5× dose). For CLR01 brain-accumulation studies, two 11.86-μg/g injections were administered at equal time intervals (22-m WT 2× inj). In these experiments, mice were injected at time = 0 and at t = ½ of euthanasia time. For example, in the original, single-injection experiments, a mouse would receive an injection at t = 0 and then be euthanized at t = 1 h. In this experiment, a mouse received one injection at t = 0, a second injection at t = 0.5 h, and then was euthanized at t = 1 h.
In experiments using ^3H-CLR01, urine was collected when possible over the period between injection and euthanasia. […] We could not normalize the radioactivity because the amount of urine in the bladder prior to injection and the volume produced during the experiment could not be calculated.
To correct for the radioactivity associated with blood-borne ^3H-CLR01 in the brain vasculature, we performed both perfusion and subtraction analyses. In perfusion experiments, WT and 3×Tg mice at each of the three ages analyzed (n = 3 per group) were perfused with phosphate buffered saline following euthanasia. Perfusion lasted for either 5 min or until the liver changed color from a red to yellow, whichever was longer. In other experiments, mice were not perfused, but radioactivity associated with 10 μl of blood per g of brain [29, 30] was calculated based on brain weight and blood radioactivity levels and subtracted from brain radioactivity levels. At 1 h post injection, perfusion-corrected brain values were statistically similar to subtraction-corrected brain values (Figure 5). […]

cytochrome P450 system = tested on: cytochrome P450 system; set-up: method as in PMID 23183235; settings: up to 10-μM, compared to rifampicin positive control; cited from earlier work

O=P(O)(O)Oc1c2c(c(OP(=O)(O)O)c3c1C1CC3c3cc4c(cc31)C1CC4c3ccccc31)C1CC2c2cc3c(cc21)C1CC3c2ccccc21 [CLR01]
Inorganic phosphate released on incubation with ALP [1]: undetectable levels of inorganic phosphate
SC bioavailability ([2]; 1 mg/kg SC vs IV, 2-m old WT mice): identical, within experimental error, to the IV administration
Administered dose detected in the blood at the earliest time point ([2]; 20 min, SC or IV 1 mg/kg): ~ 30%
Initial CLR01 levels found in the plasma ([2]; 8 h following SC or IV administration): Approximately 5%
half-life ([2]; mouse, plasma, subcutaneous, SC or IV 1 mg/kg): ~2.5 h
Oral bioavailability ([2]; oral gavage 10 mg/kg): negligible
Affinity for Lys residues [3]: low micromolar affinity
Brain radioactivity levels over time ([4]; 0.5 - 72 h post-injection, IV): did not change significantly up to 72 h post-injection
Brain penetration, % of blood ([4]; 1× CLR01 dose, 1 h, 22-m old WT mice): 0.86 ± 0.30%
Brain penetration, % of blood ([4]; 5× CLR01 dose (59.3 μg/g), 1 h, 22-m old WT mice): 0.97 ± 0.28%
Absolute amount of radioactivity in the brain relative to 1× dose ([4]; 5× CLR01 dose, 22-m old WT mice, on average): 5 times
Blood radioactivity levels, % of the injected levels ([4]; 12-m old 3×Tg mice): 40 ± 6%
Blood radioactivity levels, % of the injected levels ([4]; 12-m old WT mice): 39 ± 13%
Brain radioactivity after double injection compared to one injection ([4]; 1 h, 22-m old WT mice): 3.3 ×
Brain-radioactivity levels as a percentage of blood-radioactivity levels (CPM/g)/(CPM/ml) ([4]; 1 h following IV injection, 2-m old 3×Tg mice): 3.09 ± 0.55%
Brain-radioactivity levels as a percentage of blood-radioactivity levels (CPM/g)/(CPM/ml) ([4]; 1 h following IV injection, 2-m old WT mice): 2.68 ± 0.31%
Brain-radioactivity levels as a percentage of blood-radioactivity levels (CPM/g)/(CPM/ml) ([4]; 1 h following IV injection, 12-m old 3×Tg mice): 1.43 ± 0.17%
Brain-radioactivity levels as a percentage of blood-radioactivity levels (CPM/g)/(CPM/ml) ([4]; 1 h following IV injection, 12-m old WT mice): 2.11 ± 0.69%
Brain-radioactivity levels as a percentage of blood-radioactivity levels (CPM/g)/(CPM/ml) ([4]; 1 h following IV injection, 24-m old 3×Tg mice): 1.45 ± 0.28%
Brain-radioactivity levels as a percentage of blood-radioactivity levels (CPM/g)/(CPM/ml) ([4]; 1 h following IV injection, 24-m old WT mice): 0.86 ± 0.17%
Brain-radioactivity levels as a percentage of blood-radioactivity levels, over all groups ([4]; 1 h following IV injection, depending on age and genotype (WT versus 3×Tg)): 0.86–3.09% and 1 - 3% and ~ 2%
Brain radioactivity after double injection compared to one injection ([4]; 3 h, 22-m old WT mice): 1.6 ×
Brain radioactivity after double injection compared to one injection ([4]; 8 h, 22-m old WT mice): 1.9 ×
Radioactivity observed at 0.5 h remaining in the blood ([4]; after 8 h, IV): 5 - 10%
Brain CLR01 radioactivity levels per g of brain, most group × time combinations ([4]; single IV injection 11.86 μg/g): 10,000 - 20,000 CPM/g
Route of excretion (urine radioactivity, qualitative) ([4]; urine collected between injection and euthanasia): excreted through the urine
Activation of the cytochrome P450 system (cytochrome P450 system): Minimal activation
